Results on 8 molecules are retold here after patent publication EP4702986A1, “POLYPEPTIDE AND USE THEREOF” (Biocells (Beijing) Biotech Co., Ltd., priority 2023, dated 2024).

Read-outs that look alike come from different tables or passages of the source. Numbered stars: 1 amine (or outer) side, 2 acyl side, 3 side chain; on linkers, the order of the positions; unused ones are H or OH. Bridge positions count the residues as written; N and C are the ends. Square brackets hold non-standard residues; d marks the D form. Side chains are listed from the residue outwards. Peptide text beside a SMILES is read from it. * marks the point of attachment. C18 diacid = O=C(O)CCCCCCCCCCCCCCCCC(=O)*; γGlu = O=C(O)[C@H](CCC(=O)[*:2])N[*:1]; Fumaryl(OMe) = COC(=O)/C=C/C(=O)*; Suc = O=C(CCC(=O)[*:2])[*:1]; Orn = NCCC[C@H](N)C(=O)O; Dab = NCC[C@H](N)C(=O)O; AEEA = NCCOCCOCC(=O)O

For this experiment, the target named is T1, human ETA receptor (Homo sapiens, UniProt P25101).
T1 construct: expressed in transfected cells; host or cells: 293T-17 cells, transient transfection
T1 sequence (P25101 21-427): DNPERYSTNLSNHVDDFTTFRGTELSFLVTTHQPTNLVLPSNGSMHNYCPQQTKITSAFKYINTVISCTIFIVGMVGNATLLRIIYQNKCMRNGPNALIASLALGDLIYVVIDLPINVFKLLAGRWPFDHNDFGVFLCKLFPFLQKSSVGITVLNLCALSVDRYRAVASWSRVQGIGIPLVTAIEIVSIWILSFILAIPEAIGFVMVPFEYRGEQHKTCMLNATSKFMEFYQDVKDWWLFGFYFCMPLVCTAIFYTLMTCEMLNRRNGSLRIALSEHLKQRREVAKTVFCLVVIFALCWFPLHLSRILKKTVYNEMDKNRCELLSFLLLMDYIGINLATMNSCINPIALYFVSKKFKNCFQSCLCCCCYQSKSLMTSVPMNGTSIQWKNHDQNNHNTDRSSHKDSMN
The experiment can be described thus: Selectivity of polypeptides on human ETA receptor (IP-One Gq kit, % of positive control ET1). The format is cell-based. The settings on record: read-out: hETAR agonist activity, percentage of activity relative to ET1. On the procedure: 293T-17 cells were seeded at a density of 650,000 cells per well in a 6-well plate and cultured overnight in an incubator at 37°C and 5% CO2. Afterward, the cells were transfected with an expression vector, PCDNA3.1-hETA which contained a human ETA receptor gene, at a plasmid concentration of 2.5 µg per well. The cells were further cultured for 48 hours, and green fluorescence expression was observed under a fluorescence microscope. The cells were then digested with trypsin and counted. The activity of compounds on the human ETA receptor was determined with the IP-One Gq kit from Cisbio Bioassays. The cells were suspended in Stim Buffer provided in the kit and the cell suspension was added to a 96-well detection plate at 7 µL cell suspension (containing 30,000 cells) per well. The polypeptides to be screened for activity (prepared according to the Preparation Example of the invention) and polypeptide human endothelin ET1 as positive control were dissolved in Stim B to be at a concentration of 2×, and 7 µL was added to the test cells, while 7 µL of PBS solution was added to the cells in the negative control wells. Human endothelin ET1 (ET1: […] (C1-C15,C3-C11)) set forth in SEQ ID No. 85 was used as the positive control polypeptide. The plate was sealed and incubated at 37°C for 1 h in a cell culture incubator. Detection wells, positive control wells, and PBS control wells were each added with 3 µL of IP1 d2 working solution and 3 µL of IP1 Tb cryptotate Antibody working solution. The plate was sealed and incubated in the dark at room temperature (25°C±5°C) for 1 h. The plate seal was removed, and the […] at 665 nm and 620 nm was measured with an ID5 microplate reader. The ratio of the acceptor emission signal to the donor emission signal, i.e., the value of (signal at 665 nm/signal at 620 nm)×10^4, was calculated for each well. With F3 representing the average value of values of signal at 665 nm/signal at 620 nm determined for the test sample at a specific concentration, F5 representing the average value of values of signal at 665 nm/signal at 620 nm determined for the positive control human endothelin ET1 at the same concentration, and T3 representing the average value of values of signal at 665 nm/signal at 620 nm determined for the PBS negative control, the percentage of activity of the test polypeptide sample relative to the positive control sample ET1 = (F3-T3)×100/(F5-T3) (see Table 6). hETA sequence (NCBI accession number L06622.1).

Take `CC[C@H](C)[C@H](NC(=O)[C@H](CC(=O)O)NC(=O)[C@H](CC(C)C)NC(=O)[C@H](Cc1c[nH]cn1)NC(=O)[C@H](C)NC(=O)[C@H](Cc1ccccc1)NC(=O)[C@H](Cc1ccc(O)cc1)NC(=O)[C@H](CCCCN)NC(=O)[C@H](C)NC(=O)[C@H](CCC(=O)O)NC(=O)[C@H](CCC(=O)O)NC(=O)[C@H](CC(=O)O)NC(=O)CCC(=O)O)C(=O)N[C@H](C(=O)N[C@@H](Cc1c[nH]c2ccccc12)C(=O)O)[C@@H](C)CC` [BX-43] (Suc-DEEAKYFAHLDIIW-OH): the activation at 1 µM stood at 13.5%. Also, the activation at 10 µM (@10µM) amounted to 17%.
As for `CC[C@H](C)[C@H](NC(=O)[C@H](CC(=O)O)NC(=O)[C@H](CCCCN)NC(=O)[C@H](Cc1c[nH]cn1)NC(=O)[C@H](C)NC(=O)[C@H](Cc1ccccc1)NC(=O)[C@H](Cc1ccc(O)cc1)NC(=O)[C@@H](NC(=O)[C@H](CCC(=O)O)NC(=O)[C@H](CCC(=O)O)NC(=O)[C@H](CCC(=O)O)NC(=O)[C@H](CC(=O)O)NC(=O)CCC(=O)O)C(C)C)C(=O)N[C@H](C(=O)N[C@@H](Cc1c[nH]c2ccccc12)C(=O)O)[C@@H](C)CC` [BX-45] (Suc-DEEEVYFAHKDIIW-OH), the activation at 1 µM was 14.7%.
Regarding `CC[C@H](C)[C@H](NC(=O)[C@H](CC(=O)O)NC(=O)[C@H](CC(C)C)NC(=O)[C@H](Cc1c[nH]cn1)NC(=O)[C@H](C)NC(=O)[C@H](Cc1ccccc1)NC(=O)[C@H](Cc1ccc(O)cc1)NC(=O)[C@@H]1CCNC(=O)CC[C@H](NC(=O)[C@H](CC(=O)O)NC(=O)CCC(=O)O)C(=O)N[C@@H](CCC(=O)O)C(=O)N[C@@H](C)C(=O)N1)C(=O)N[C@H](C(=O)N[C@@H](Cc1c[nH]c2ccccc12)C(=O)O)[C@@H](C)CC` [BX-49] (Suc-DEEA[Dab]YFAHLDIIW-OH; lactam 2-5), the activation at 0.01 µM (@10nM) was -20.9%. Also, the activation at 0.1 µM (@100nM) is -15.4%.
With `CC[C@H](C)[C@H](NC(=O)[C@H](CC(=O)O)NC(=O)[C@@H]1CCCCNC(=O)CC[C@H](NC(=O)[C@H](CCC(=O)O)NC(=O)[C@H](CCC(=O)O)NC(=O)[C@H](CC(=O)O)NC(=O)CCC(=O)O)C(=O)N[C@@H](C(C)C)C(=O)N[C@@H](Cc2ccc(O)cc2)C(=O)N[C@@H](Cc2ccccc2)C(=O)N[C@@H](C)C(=O)N[C@@H](Cc2c[nH]cn2)C(=O)N1)C(=O)N[C@H](C(=O)N[C@@H](Cc1c[nH]c2ccccc12)C(=O)O)[C@@H](C)CC` [BX-50, Suc-DEE cyclo(EVYFAHK)DIIW] (Suc-DEEEVYFAHKDIIW-OH; lactam 4-10), the activation at 0.01 µM was 10.1% and the activation at 0.1 µM is -6.92%.
In the same order, the values of `CC[C@H](C)[C@H](NC(=O)[C@H](CC(=O)O)NC(=O)[C@H](CCCN)NC(=O)[C@H](Cc1c[nH]cn1)NC(=O)[C@H](C)NC(=O)[C@H](Cc1ccccc1)NC(=O)[C@H](Cc1ccc(O)cc1)NC(=O)[C@@H](NC(=O)[C@H](CCC(=O)O)NC(=O)[C@H](CCC(=O)O)NC(=O)[C@H](CCC(=O)O)NC(=O)[C@H](CC(=O)O)NC(=O)CCC(=O)O)C(C)C)C(=O)N[C@H](C(=O)N[C@@H](Cc1c[nH]c2ccccc12)C(=O)O)[C@@H](C)CC` [BX-53, Suc-DEEEVYFAHOrnDIIW] (Suc-DEEEVYFAH[Orn]DIIW-OH) are -17.6% and -17%.
`CC[C@H](C)[C@H](NC(=O)[C@H](CC(=O)O)NC(=O)[C@H](CCCCNC(=O)COCCOCCNC(=O)COCCOCCNC(=O)CC[C@H](NC(=O)CCCCCCCCCCCCCCCCC(=O)O)C(=O)O)NC(=O)[C@H](Cc1c[nH]cn1)NC(=O)[C@H](C)NC(=O)[C@H](Cc1ccccc1)NC(=O)[C@H](Cc1ccc(O)cc1)NC(=O)[C@@H](NC(=O)[C@H](CCC(=O)O)NC(=O)[C@H](CCC(=O)O)NC(=O)[C@H](CCC(=O)O)NC(=O)[C@H](CC(=O)O)NC(=O)CCC(=O)O)C(C)C)C(=O)N[C@H](C(=O)N[C@@H](Cc1c[nH]c2ccccc12)C(=O)O)[C@@H](C)CC` [BX-54] (Suc-DEEEVYFAHK([AEEA-AEEA-γGlu-C18 diacid])DIIW-OH): the activation at 10 µM (@10µM) was -18.5%. Moreover, the activation at 100 µM (@100µM) was -8.66%.
The matching figures for `CC[C@H](C)[C@H](NC(=O)[C@H](CC(=O)O)NC(=O)[C@H](CCCCN)NC(=O)[C@H](Cc1c[nH]cn1)NC(=O)[C@H](C)NC(=O)[C@H](Cc1ccccc1)NC(=O)[C@H](Cc1ccc(O)cc1)NC(=O)[C@@H](NC(=O)[C@H](CCC(=O)O)NC(=O)[C@H](CCC(=O)O)NC(=O)[C@H](CCC(=O)O)NC(=O)[C@H](CC(=O)O)NC(=O)/C=C/C(=O)OC)C(C)C)C(=O)N[C@H](C(=O)N[C@@H](Cc1c[nH]c2ccccc12)C(=O)O)[C@@H](C)CC` [BX-58] ({Fumaryl(OMe)}-DEEEVYFAHKDIIW-OH): -5.95% and -2.01%.
As for `CC[C@H](C)[C@H](NC(=O)[C@H](CC(=O)O)NC(=O)[C@H](CCCCNC(=O)CC[C@H](NC(=O)COCCOCCNC(=O)COCCOCCNC(=O)CCCCCCCCCCCCCCCCC(=O)O)C(=O)O)NC(=O)[C@H](Cc1c[nH]cn1)NC(=O)[C@H](C)NC(=O)[C@H](Cc1ccccc1)NC(=O)[C@H](Cc1ccc(O)cc1)NC(=O)[C@@H](NC(=O)[C@H](C)NC(=O)[C@H](CCC(=O)O)NC(=O)[C@H](CCC(=O)O)NC(=O)[C@H](CC(=O)O)NC(=O)CCC(=O)O)C(C)C)C(=O)N[C@H](C(=O)N[C@@H](Cc1c[nH]c2ccccc12)C(=O)O)[C@@H](C)CC` [BX-74] (Suc-DEEAVYFAHK([γGlu-AEEA-AEEA-C18 diacid])DIIW-OH), the activation at 10 µM is -2.64% and the activation at 100 µM is -13.5%.
